The text below walks through data of the supplement of paper PMC10307832.

Holding throughout (assay): relative viability (nuclei count vs DMSO), 5 days (fraction); higher = more cells survive
Compound in the test “Motesanib + Lapatinib”: CC1(C)CNc2cc(NC(=O)c3cccnc3NCc3ccncc3)ccc21 [Motesanib] + CS(=O)(=O)CCNCc1ccc(-c2ccc3ncnc(Nc4ccc(OCc5cccc(F)c5)c(Cl)c4)c3c2)o1 [Lapatinib] (partner 2 µM)
In outline:
(§1)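 Medians of duplicate plates are given as relative viability. That measure is the nuclei count in treated wells divided by the count in vehicle wells. Counts were taken on 4× images of lung cancer cell lines in 1536-well plates, 5 days after pin-tool dosing the day after seeding with one drug alone or a fixed anchor-drug dose plus five library-drug doses (not always all listed) in √10 steps.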

Compound in the test “Motesanib + Dasatinib”: CC1(C)CNc2cc(NC(=O)c3cccnc3NCc3ccncc3)ccc21 [Motesanib] + Cc1nc(Nc2ncc(C(=O)Nc3c(C)cccc3Cl)s2)cc(N2CCN(CCO)CC2)n1 [Dasatinib] (partner 0.075 µM)
In short, it runs like this: as §1

Compound in test [1]: C[C@@]1(C(=O)Nc2ccc(F)nc2)CCCN1c1nc(Nc2cc(C3CC3)n[nH]2)c2cccn2n1 + C[C@@H](Oc1cc(-c2cnn(C3CCNCC3)c2)cnc1N)c1c(Cl)ccc(F)c1Cl [Crizotinib] (partner 1 µM)
In outline:
as §1

Compound in test [2]: C[C@@]1(C(=O)Nc2ccc(F)nc2)CCCN1c1nc(Nc2cc(C3CC3)n[nH]2)c2cccn2n1 + O=C(c1cc(Cc2n[nH]c(=O)c3ccccc23)ccc1F)N1CCN(C(=O)C2CC2)CC1 [Olaparib] (partner 8 µM)
In short, it runs like this: as §1

On to SK-MES-1, for which the relative viability worked out at 0.46 with Motesanib + Lapatinib (first compound 0.01 µM); 0.481 with Motesanib + Lapatinib (first compound 0.03162 µM); 0.418 with Motesanib + Lapatinib (first compound 0.1 µM); 0.465 with Motesanib + Lapatinib (first compound 0.3162 µM); 0.454 with Motesanib + Lapatinib (first compound 1 µM); 0.397 with Motesanib + Dasatinib (first compound 0.01 µM). Moreover, the relative viability with Motesanib + Dasatinib (first compound 0.03162 µM) worked out at 0.424; in the test with Motesanib + Dasatinib (first compound 0.1 µM), 0.373; in the test with Motesanib + Dasatinib (first compound 0.3162 µM) it was 0.412; with Motesanib + Dasatinib (first compound 1 µM), 0.378; in test [1] (first compound 0.04 µM) it was 1.09; in test [1] (first compound 0.1265 µM), 0.84. Also, the relative viability was 0.861 in test [1] (first compound 0.4 µM); 0.879 in test [1] (first compound 1.265 µM); 0.718 in test [2] (first compound 0.04 µM); 0.702 in test [2] (first compound 0.1265 µM); 0.557 in test [2] (first compound 0.4 µM); 0.373 in test [2] (first compound 1.265 µM).
With SW 1573, the relative viability with Motesanib + Lapatinib (first compound 0.01 µM) was found to be 1.16; with Motesanib + Lapatinib (first compound 0.03162 µM) it was 1.09; in the test with Motesanib + Lapatinib (first compound 0.1 µM) it was 1; with Motesanib + Lapatinib (first compound 0.3162 µM) it was 0.929; with Motesanib + Lapatinib (first compound 1 µM) it was 1.33; with Motesanib + Dasatinib (first compound 0.01 µM), 0.53. The relative viability with Motesanib + Dasatinib (first compound 0.03162 µM) came out at 0.447; with Motesanib + Dasatinib (first compound 0.1 µM), 0.593; with Motesanib + Dasatinib (first compound 0.3162 µM), 0.552; with Motesanib + Dasatinib (first compound 1 µM), 0.673; in test [1] (first compound 0.04 µM), 0.665; in test [1] (first compound 0.1265 µM), 0.63. The relative viability worked out at 0.509 in test [1] (first compound 0.4 µM); 0.531 in test [1] (first compound 1.265 µM); 0.38 in test [2] (first compound 0.04 µM); 0.409 in test [2] (first compound 0.1265 µM); 0.341 in test [2] (first compound 0.4 µM); 0.253 in test [2] (first compound 1.265 µM).
On to UMC-11, for which the relative viability is 0.901 with Motesanib + Lapatinib (first compound 0.01 µM); 1.07 in the test with Motesanib + Lapatinib (first compound 0.03162 µM); 0.724 with Motesanib + Lapatinib (first compound 0.1 µM); 1 with Motesanib + Lapatinib (first compound 0.3162 µM); 1.08 with Motesanib + Lapatinib (first compound 1 µM); 0.435 in the test with Motesanib + Dasatinib (first compound 0.01 µM). Also, the relative viability in the test with Motesanib + Dasatinib (first compound 0.03162 µM) was 0.447; with Motesanib + Dasatinib (first compound 0.1 µM), 0.489; in the test with Motesanib + Dasatinib (first compound 0.3162 µM), 0.477; in the test with Motesanib + Dasatinib (first compound 1 µM) it was 0.471; in test [1] (first compound 0.04 µM), 0.615; in test [1] (first compound 0.1265 µM) it was 0.628. Besides, the relative viability in test [1] (first compound 0.4 µM) was found to be 0.534; in test [1] (first compound 1.265 µM) it was 0.328; in test [2] (first compound 0.04 µM) it was 0.376; in test [2] (first compound 0.1265 µM) it was 0.316; in test [2] (first compound 0.4 µM) it was 0.336; in test [2] (first compound 1.265 µM), 0.426.
